Test results reported in PubChem BioAssay AID1845216 (Molecular Pharmacology Branch, DTP, NCI, 2023).

Test system: SW 982 tumor spheroid viability
Test: Anticancer human tumor SW 982 cell line growth inhibition;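 note: spheroids exposed to compound for 7 days before readout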
Conditions: spheroids with HUVEC and MSC; for IC50: curve of first compound; for viability, T/C: stronger effect = lower value
How it was run: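 Single agents and combinations were tested on spheroids built from tumor cells plus HUVEC and hMSC, at half-log dilutions starting at or near clinical Cmax, else 10 microM; final DMSO 0.25% (v/v).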

[1] = second compound 0.003 µM, first compound 0.0316 µM
[2] = second compound 0.003 µM, first compound 0.1 µM
[3] = second compound 0.003 µM, first compound 0.316 µM
[4] = second compound 0.003 µM, first compound 1 µM
[5] = second compound 0.003 µM, first compound 3.16 µM
[6] = second compound 0.003 µM, first compound 10 µM
[7] = second compound 0.00949 µM, first compound 0.0316 µM
[8] = second compound 0.00949 µM, first compound 0.1 µM
[9] = second compound 0.00949 µM, first compound 0.316 µM
[10] = second compound 0.00949 µM, first compound 1 µM
[11] = second compound 0.00949 µM, first compound 3.16 µM
[12] = second compound 0.00949 µM, first compound 10 µM
[13] = second compound 0.03 µM, first compound 0.0316 µM
[14] = second compound 0.03 µM, first compound 0.1 µM
[15] = second compound 0.03 µM, first compound 0.316 µM
[16] = second compound 0.03 µM, first compound 1 µM
[17] = second compound 0.03 µM, first compound 3.16 µM
[18] = second compound 0.03 µM, first compound 10 µM
[19] = second compound 0.0949 µM, first compound 0.0316 µM
[20] = second compound 0.0949 µM, first compound 0.1 µM
[21] = second compound 0.0949 µM, first compound 0.316 µM
[22] = second compound 0.0949 µM, first compound 1 µM
[23] = second compound 0.0949 µM, first compound 3.16 µM
[24] = second compound 0.0949 µM, first compound 10 µM
[25] = second compound 0.3 µM, first compound 0.0316 µM
[26] = second compound 0.3 µM, first compound 0.1 µM
[27] = second compound 0.3 µM, first compound 0.316 µM
[28] = second compound 0.3 µM, first compound 1 µM
[29] = second compound 0.3 µM, first compound 3.16 µM
[30] = second compound 0.3 µM, first compound 10 µM

Structure (SMILES)	IC50 (second compound 0.003 µM) [nM]	IC50 (second compound 0.00949 µM) [nM]	IC50 (second compound 0.03 µM) [nM]	IC50 (second compound 0.0949 µM) [nM]	IC50 (second compound 0.3 µM) [nM]	viability, T/C [1] [%]	viability, T/C [2] [%]	viability, T/C [3] [%]	viability, T/C [4] [%]	viability, T/C [5] [%]	viability, T/C [6] [%]	viability, T/C [7] [%]	viability, T/C [8] [%]	viability, T/C [9] [%]	viability, T/C [10] [%]	viability, T/C [11] [%]	viability, T/C [12] [%]	viability, T/C [13] [%]	viability, T/C [14] [%]	viability, T/C [15] [%]	also measured
CC(C)n1c(=O)n(C)c2cnc3cc(F)c(-c4ccc(OCCCN5CCCCC5)nc4)cc3c21 + CC[C@@]1(O)C(=O)OCc2c1cc1n(c2=O)Cc2cc3c(CN(C)C)c(O)ccc3nc2-1	1570	1530	952	513	76.8	80.2	77	78.9	62.5	30.2	20.3	71.6	79.7	64	61.4	34.4	18.4	71.6	81	59.4	viability, T/C [16]: 53.6%; viability, T/C [17]: 25.1%; viability, T/C [18]: 17.1%; viability, T/C [19]: 72.6%; viability, T/C [20]: 65.5%; viability, T/C [21]: 58.6%; viability, T/C [22]: 39.3%; viability, T/C [23]: 24.9%; viability, T/C [24]: 15.9%; viability, T/C [25]: 56.4%; viability, T/C [26]: 46.2%; viability, T/C [27]: 40.8%; viability, T/C [28]: 30%; viability, T/C [29]: 18.6%; viability, T/C [30]: 14.5%
CC1COCCN1c1cc(-c2ccnn2C)c2ccnc(-c3ccn[nH]3)c2n1 (stereo not given) + CC[C@@]1(O)C(=O)OCc2c1cc1n(c2=O)Cc2cc3c(CN(C)C)c(O)ccc3nc2-1	< 31.6	< 31.6	< 31.6	< 31.6	< 31.6	24.8	17.2	12.2	7.73	9.86	13.6	16.3	14.9	10.3	8.21	9.89	12.6	18.2	10.3	8.15	viability, T/C [16]: 7.1%; viability, T/C [17]: 10.2%; viability, T/C [18]: 13.3%; viability, T/C [19]: 12.1%; viability, T/C [20]: 11.4%; viability, T/C [21]: 9.49%; viability, T/C [22]: 8.79%; viability, T/C [23]: 9.28%; viability, T/C [24]: 12%; viability, T/C [25]: 12.1%; viability, T/C [26]: 8.63%; viability, T/C [27]: 7.14%; viability, T/C [28]: 6.54%; viability, T/C [29]: 7.28%; viability, T/C [30]: 7.84%
COc1cc(C)[nH]c(=O)c1CN1CCc2c(Cl)cc(C(OC)C3COC3)c(Cl)c2C1=O (stereo not given) + CC[C@@]1(O)C(=O)OCc2c1cc1n(c2=O)Cc2cc3c(CN(C)C)c(O)ccc3nc2-1	> 10000	> 10000	> 10000	> 10000	< 31.6	87.8	81.4	90.5	89.8	87.8	90.4	74.8	77.3	75.1	79.4	82.7	83	77.7	66.8	70.8	viability, T/C [16]: 75.8%; viability, T/C [17]: 69%; viability, T/C [18]: 72.5%; viability, T/C [19]: 58.2%; viability, T/C [20]: 56%; viability, T/C [21]: 65%; viability, T/C [22]: 63%; viability, T/C [23]: 66%; viability, T/C [24]: 76.5%; viability, T/C [25]: 49.4%; viability, T/C [26]: 47.2%; viability, T/C [27]: 42.9%; viability, T/C [28]: 41.2%; viability, T/C [29]: 48.2%; viability, T/C [30]: 52.4%
COc1ccc([C@@H](O)c2cc(-c3ncnc4cc(N5CCOCC5)ccc34)c(F)cc2Cl)nn1 + CC[C@@]1(O)C(=O)OCc2c1cc1n(c2=O)Cc2cc3c(CN(C)C)c(O)ccc3nc2-1	4470	2150	1190	524	130	96.9	95.5	92.1	90.9	59.8	27.1	86.4	78.5	80.7	72.2	38.9	15	73.8	76.2	70.3	viability, T/C [16]: 53.9%; viability, T/C [17]: 26.8%; viability, T/C [18]: 12.8%; viability, T/C [19]: 70.6%; viability, T/C [20]: 68.8%; viability, T/C [21]: 60.5%; viability, T/C [22]: 36.6%; viability, T/C [23]: 18.5%; viability, T/C [24]: 12.8%; viability, T/C [25]: 52.2%; viability, T/C [26]: 55.7%; viability, T/C [27]: 40.6%; viability, T/C [28]: 23.2%; viability, T/C [29]: 13.1%; viability, T/C [30]: 10.2%
[2H]c1nc(C)nc([2H])c1-c1cc(NC[C@@H](C)c2cccc3c(C(=O)NC)ccnc23)ncn1 + CC[C@@]1(O)C(=O)OCc2c1cc1n(c2=O)Cc2cc3c(CN(C)C)c(O)ccc3nc2-1	> 10000	> 10000	> 10000	> 10000	> 10000	90.1	97.5	103	104	101	101	89.1	89.4	89.2	95.2	82.1	78	77.4	78	83.7	viability, T/C [16]: 84.8%; viability, T/C [17]: 95.4%; viability, T/C [18]: 81.8%; viability, T/C [19]: 69.7%; viability, T/C [20]: 72.5%; viability, T/C [21]: 76.5%; viability, T/C [22]: 70.9%; viability, T/C [23]: 84.5%; viability, T/C [24]: 73.5%; viability, T/C [25]: 58.2%; viability, T/C [26]: 55.4%; viability, T/C [27]: 54.3%; viability, T/C [28]: 62.5%; viability, T/C [29]: 45.1%; viability, T/C [30]: 52.1%
